# Experimental data taken from paper PMC5755735, “Discovery of indolylpiperazinylpyrimidines with dual-target profiles at adenosine A2A and dopamine D2 receptors for Parkinson's disease treatment” (PLoS ONE, 2018).
# Like-named read-outs stand apart in the source and are kept apart here.
# Tests used:
# LRRK2 G2019S flies = experiment: fly viability / survival of mutant LRRK2 G2019S flies; type: in vivo; settings: for effect on fly viability / mortality: concentrations in the 50–100 μM range; for effect on fly viability: ligand concentration 500 μM
# Experimental: Studies have shown that expression of the LRRK2-G2019S mutantion in Drosophila caused more severe PD phenotypes, including locomotor dysfunction, loss of dopaminergic neurons, and early mortality, relative to that of wild-type LRRK2 [31]. Prior to evaluating compounds 5 and 6 in the Drosophila model of PD, the effect of compound concentrations on fly viability was studied. At the ligand concentration of 500 μM, both compounds were lethal to G2019S flies (data not shown). […] As there was no remarkable difference in the survival rate between 50 and 100 μM for compound 5, this range was selected for compound 5 for the subsequent climbing assay and quantification of DA neurons.
# Fly lines for 24B-Gal4 (muscle specific), ddc-Gal4 (dopaminergic neuron-specific), elav-Gal4 (pan-neuronal), UAS-mito-GFP, and UAS-dAMPK-KA were purchased from Bloomington Drosophila Stock Center. The parkin-null mutant flies were kind gifts from Chung J. and Cho K. S. (Korea Advanced Institute of Science and Technology, Daejeon, Korea). To generate transgenic mutant LRRK2 G2019S, cDNA containing a myc-tag at the C terminus was inserted into pUAST plasmid and microinjected into Drosophila embryos (BestGene). Sequencing of cloned products was performed before they were microinjected into the embryos. Climbing assays were performed according to a previously described method. Briefly, 20 female adult flies from each group were randomly selected after being anaesthetised and placed in a vertical plastic column (length 25 cm; diameter 1.5 cm). Age-matched normal flies were used as controls. After a 2-hour recovery period from CO2 exposure, flies were gently tapped to the bottom of the column, and the number of flies that reached the top of column at 1 min was counted. Results are presented as mean ± SEM of the scores obtained from three independent experiments. To study the effect of compounds, flies were fed with cornmeal-agar medium supplemented with the DMSO solution of the compound immediately at post-eclosion (for parkin-null flies) or at day 35 onwards (for LRRK2 mutant flies) for a period of 25 days. Immunohistochemical analysis of whole-mount adult fly brains were prepared according to published protocols and stained with rabbit anti-TH (1:300, Pel-Freez Biologicals) as primary antibody. The stained samples were viewed using an Olympus Fluoview Upright Confocal Microscope. DA neurons were quantified according to previously published method. The size of mito-GFP puncta was measured using the ImageJ program and expressed as mean ± SD (n ≥ 10 DA neurons per experimental group). Statistical significance for all the quantitative data obtained were analyzed using one-way ANOVA with Tukey’s test HSD post hoc test (*p < 0.05, **p < 0.01).
# parkin-null flies = experiment: parkin-null Drosophila model of PD (climbing assay, DA neuron count); type: in vivo; settings: 50 μM
# Text: (§1) Parkin-null (pk-/-) flies were first used to evaluate compound 5. […] (Fig 8B), the cluster used widely in the parkin-null flies. Compound 5 was subsequently examined for its ability to ameliorate LRRK2 G2019S-induced PD phenotypes. […] Taken together, these findings indicate that compound 5 acts as a suppressor of DA neuron dysfunction in two Drosophila genetic PD models—one with parkin-null which represents recessive PD, and one with transgene LRRK2 G2019S-mutant, which represents dominant PD.
# (§2) Fly lines for 24B-Gal4 (muscle specific), ddc-Gal4 (dopaminergic neuron-specific), elav-Gal4 (pan-neuronal), UAS-mito-GFP, and UAS-dAMPK-KA were purchased from Bloomington Drosophila Stock Center. The parkin-null mutant flies were kind gifts from Chung J. and Cho K. S. (Korea Advanced Institute of Science and Technology, Daejeon, Korea). […] After a 2-hour recovery period from CO2 exposure, flies were gently tapped to the bottom of the column, and the number of flies that reached the top of column at 1 min was counted. […] DA neurons were quantified according to previously published method. The size of mito-GFP puncta was measured using the ImageJ program and expressed as mean ± SD (n ≥ 10 DA neurons per experimental group). Statistical significance for all the quantitative data obtained were analyzed using one-way ANOVA with Tukey’s test HSD post hoc test (*p < 0.05, **p < 0.01).
# [1] = system: LRRK2 G2019S-expressing flies; experiment: LRRK2 G2019S Drosophila model of PD (climbing assay, DA neuron count); type: in vivo
# Text: as §1, §2
# aqueous solubility = type: physicochemical; settings: universal aqueous buffer, 22.5 °C, pH 7.4, aqueous buffer, kinetic from dmso stock
# Experimental: The 10 μL stock solution of the ligand (10 mM in DMSO) was added to the universal aqueous buffer (pH 7.4), and the mixture was sonicated. 300 μL of the turbid mixture was transferred to the 3 wells of MultiScreen HTS- PCF filter plate (Millipore Corp., Ireland), and the plate was covered and incubated with gentle shaking (250 rpm, 3 h) at room temperature (22.5 ± 2.5°C). After the period of incubation (3 h), the filter plate was placed on a vacuum manifold and the contents were filtered into a 96-well UV plate. After filtration, 200 μL of filtrate was transferred from each well to the PP vial. Absorbances of the solutions were quantified by HPLC-UV and read at 250 nm.
# [2] = biological target: human dopamine D2 receptor (Homo sapiens, UniProt P14416); experiment: adenylyl cyclase inhibition (cAMP accumulation) assay in CHO cells transfected with D2 receptor; type: cell-based; parameters: expressed in transfected cells; host or cells: CHO cells
# human dopamine D2 receptor, sequence (P14416 whole entry): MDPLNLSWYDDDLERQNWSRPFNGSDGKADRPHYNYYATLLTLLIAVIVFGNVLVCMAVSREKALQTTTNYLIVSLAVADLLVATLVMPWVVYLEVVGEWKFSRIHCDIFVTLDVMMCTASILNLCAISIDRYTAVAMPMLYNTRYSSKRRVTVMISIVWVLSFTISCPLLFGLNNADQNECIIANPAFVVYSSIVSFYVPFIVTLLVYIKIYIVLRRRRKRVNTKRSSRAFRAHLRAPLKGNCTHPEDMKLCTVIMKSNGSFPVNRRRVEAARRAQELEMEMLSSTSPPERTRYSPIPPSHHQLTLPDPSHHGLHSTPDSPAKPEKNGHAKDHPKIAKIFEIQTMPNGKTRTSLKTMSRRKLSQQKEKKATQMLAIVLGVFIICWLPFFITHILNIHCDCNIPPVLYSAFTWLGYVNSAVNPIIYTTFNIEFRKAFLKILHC
# Experimental: CHO cells transfected with D2 receptors were cultured and then serum starved overnight. Cells were treated with various concentrations of ligands (25 μL of 10X solution), stimulated with forskolin (0.5 μM) and 3-isobutyl-1-methylxanthine (IBMX) (0.5 mM), and incubated for 15 minutes. After lysis, cAMP content was determined by ELISA.
# [3] = biological target: T1, human A2B receptors expressed in CHO cells (Homo sapiens, UniProt P29275); experiment: inhibition of NECA-stimulated adenylyl cyclase activity at hA2B
# T1 sequence (P29275 1-332): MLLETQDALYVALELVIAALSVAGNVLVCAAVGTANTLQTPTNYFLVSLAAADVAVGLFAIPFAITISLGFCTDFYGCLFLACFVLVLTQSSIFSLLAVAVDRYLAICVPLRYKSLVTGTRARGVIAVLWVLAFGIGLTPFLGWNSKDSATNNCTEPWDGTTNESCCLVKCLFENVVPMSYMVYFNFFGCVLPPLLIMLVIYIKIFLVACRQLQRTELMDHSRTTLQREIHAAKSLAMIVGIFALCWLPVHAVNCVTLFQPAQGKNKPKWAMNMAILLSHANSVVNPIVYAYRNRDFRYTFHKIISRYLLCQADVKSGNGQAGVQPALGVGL
# Experimental: For measurement of adenylyl cyclase activity in the hA2B receptors, one-step centrifugation procedure was used; the homogenate was sedimented for 30 min at 54,000 g. The so-obtained crude membrane pellet was re-suspended in 50 mM Tris/HCl, pH 7.4 and used for the adenylyl cyclase assay immediately.
# The membranes were incubated with about 150,000 cpm of [α-^32P]adenosine triphosphate ([α-^32P]ATP) and test compounds in different concentrations for 20 min. A non-linear regression analysis was applied to calculate the IC50 of the adenylyl cyclase activity assay. From the IC50 values, Ki values were then calculated using the Cheng and Prusoff equation [46].
Structure (SMILES),effect on fly viability / mortality (LRRK2 G2019S flies),effect on fly viability (LRRK2 G2019S flies),DA neuronal count (PPL1 cluster) (parkin-null flies),climbing score (parkin-null flies; compared with untreated mutant flies),climbing score ([1]; 50 μM and 100 μM),DA neuronal count ([1]; LRRK2 G2019S-expressing flies),"solubility at 3 h (aqueous solubility; ambient temperature, pH 7.4, guideline of Kerns et al. [40], read-out: aqueous solubility class)","solubility at 3 h (aqueous solubility; pH 7.4, 3 h, room temperature, read-out: Solubility (μM), 3 h)","solubility at 3 h (aqueous solubility; pH 7.4, 3 h, room temperature, read-out: Solubility (μg/mL), 3 h)","functional activity at D2 receptor (cAMP accumulation induced by forskolin/IBMX) ([2]; 1 μM, 10 μM and 100 μM)","inhibition of cAMP accumulation (optimal inhibition) ([2]; 100 μM, p = 0.0232)",Ki [3]
"Cc1cc(C)nc(N2CCN(C(=O)c3c[nH]c4ccccc34)CC2)n1 [Compound 5, 3‐[4‐(4,6‐Dimethylpyrimidin‐2‐yl)piperazine‐1‐carbonyl]‐1H‐indole]",able to delay the G2019S fly mortality,lethal,reduction of DA neuron loss in the PPL1 cluster,improvement in climbing scores,improvement in climbing (in a concentration-dependent manner),mitigation of DA neuron degeneration,< 10 µg/mL,27 ± 0.32 µM,9.07 ± 0.11 µg/mL,,,
"Cc1cc(C)nc(N2CCN(C(=O)Cc3c(C)[nH]c4ccccc34)CC2)n1 [Compound 6, 1‐[4‐(4,6‐Dimethylpyrimidin‐2‐yl)piperazin‐1‐yl]‐2‐(2‐methyl‐1H‐indol‐3‐yl)ethan‐1‐one]",toxicity,lethal,,,,,,,,acted as a D2 receptor agonist,comparable potency to 100 nM of quinpirole,> 20 µM
